Assay results as given in ChEMBL document CHEMBL1143344, “Novel DNA-directed alkylating agents: design, synthesis and potent antitumor effect of phenyl N-mustard-9-anilinoacridine conjugates via a carbamate or carbonate linker” (Bioorg Med Chem, 2009).
Activity calls are given as the source filed them. The calls are words filed in the database; no cut-off is given here.

What was measured:
CCRF-CEM [1] = assay: Ratio of IC50 for vinblastine-resistant human CCRF-CEM cells to IC50 for human CCRF-CEM cells; type: functional
CCRF-CEM [2] = assay: Cytotoxicity against taxol-resistant human CCRF-CEM cells after 72 hrs by XTT assay; type: functional, cell-based
CCRF-CEM [3] = assay: Cytotoxicity against vinblastine-resistant human CCRF-CEM cells after 72 hrs by XTT assay; type: functional, cell-based
HCT-116 = assay: Cytotoxicity against human HCT116 cells after 72 hrs by SRB assay; type: functional, cell-based; conditions: HCT-116, 72 h
CCRF-CEM [4] = assay: Cytotoxicity against human CCRF-CEM cells after 72 hrs by XTT assay; type: functional, cell-based
CCRF-CEM [5] = assay: Ratio of IC50 for taxol-resistant human CCRF-CEM cells to IC50 for human CCRF-CEM cells; type: functional
MX1 [6] = assay: Cytotoxicity against human MX1 cells after 72 hrs by SRB assay; type: functional, cell-based; conditions: MX1, 72 h
[7] = Cytotoxicity against human CL1-5 cells after 72 hrs by WST1 assay; type: functional, cell-based; conditions: CL1-5, 72 h
[8] = Cytotoxicity against human H1299 cells after 72 hrs by WST1 assay; type: functional, cell-based; conditions: NCI-H1299, 72 h
MCF7 = assay: Cytotoxicity against human MCF7 cells after 72 hrs by WST1 assay; type: functional, cell-based; conditions: MCF7, 72 h
PC-3 = assay: Cytotoxicity against human PC3 cells after 72 hrs by WST1 assay; type: functional, cell-based; conditions: PC-3, 72 h
[9] = Cytotoxicity against human CL1-0 cells after 72 hrs by WST1 assay; type: functional, cell-based; conditions: CL1-0, 72 h
MX1 [10] = assay: Antitumor activity against human MX1 cells xenografted in athymic nude mouse assessed as no tumor relapse at 100 mg/kg, iv administered qd for 6 days measured after 59 days; type: functional, organism-based; parameters: dose 100 mg/kg
MX1 [11] = assay: Antitumor activity against human MX1 cells xenografted in athymic nude mouse assessed as total tumor remission at 100 mg/kg, iv administered qd for 6 days measured after 20 days; type: functional, organism-based; parameters: dose 100 mg/kg
MX1 [12] = assay: Antitumor activity against human MX1 cells xenografted in athymic nude mouse assessed as total tumor remission at 100 mg/kg, iv administered qd for 6 days measured after 22 days; type: functional, organism-based; parameters: dose 100 mg/kg
MX1 [13] = assay: Antitumor activity against human MX1 cells xenografted in athymic nude mouse assessed as total tumor remission at 40 mg/kg, iv administered q2d for 5 days measured after 20 days; type: functional, organism-based; parameters: dose 40 mg/kg

In the case of COc1ccc(Nc2c3ccccc3nc3ccccc23)cc1NC(=O)Oc1ccc(N(CCCl)CCCl)cc1, the “Ratio IC50” value (CCRF-CEM [1]) is reported as 1.4, the IC50 (CCRF-CEM [2]) is reported as 160 nM and the IC50 (CCRF-CEM [3]) is reported as 119 nM. For the same compound, the IC50 (HCT-116) was 186 nM, the IC50 (CCRF-CEM [4]; read-out: IC50) was 85 nM and the “Ratio IC50” value (CCRF-CEM [5]) was 1.9. For the same compound, the IC50 (MX1 [6]) was 181 nM.
CC(C)OC(=O)Nc1cc(COC(=O)Nc2ccc(N(CCCl)CCCl)cc2)cc(Nc2c3ccccc3nc3ccccc23)c1 showed an IC50 [7] of 6630 nM, an IC50 [8] of 9170 nM and an IC50 (MCF7) of 7010 nM. The “Ratio IC50” value (CCRF-CEM [1]) was 4, the IC50 (CCRF-CEM [2]) was 648 nM and the IC50 (PC-3) was 16000 nM. The IC50 [9] was 4000 nM, the IC50 (CCRF-CEM [3]) was 753 nM and the IC50 (HCT-116) was 301 nM. For the same compound, the IC50 (CCRF-CEM [4]; read-out: IC50) was 189 nM, the “Ratio IC50” value (CCRF-CEM [5]) was 3.4 and the IC50 (MX1 [6]) was 1130 nM.
For CC[C@]1(O)C[C@@H]2CN(CCc3c([nH]c4ccccc34)[C@@](C(=O)OC)(c3cc4c(cc3OC)N(C)[C@H]3[C@@](O)(C(=O)OC)[C@H](OC(C)=O)[C@]5(CC)C=CCN6CC[C@]43[C@@H]65)C2)C1 [VINBLASTINE], the “Ratio IC50” value (CCRF-CEM [1]) was 679.5, the IC50 (CCRF-CEM [2]) was 78 nM and the IC50 (CCRF-CEM [3]) was 496 nM. For the same compound, the IC50 (HCT-116) was 1.1 nM, the IC50 (CCRF-CEM [4]; read-out: IC50) was 0.73 nM and the “Ratio IC50” value (CCRF-CEM [5]) was 106.2. For the same compound, the IC50 (MX1 [6]) was 2.2 nM.
With Cc1ccc(Nc2c3ccccc3nc3ccccc23)cc1NC(=O)Oc1ccc(N(CCCl)CCCl)cc1 the “Ratio IC50” value (CCRF-CEM [1]) was 2.1, the IC50 (CCRF-CEM [2]) was 216 nM and the IC50 (CCRF-CEM [3]) was 158 nM. For the same compound, the IC50 (HCT-116) was 434 nM, the IC50 (CCRF-CEM [4]; read-out: IC50) was 76 nM and the “Ratio IC50” value (CCRF-CEM [5]) was 2.8. For the same compound, the IC50 (MX1 [6]) was 214 nM.
In the case of COc1cc(NC(=O)Oc2ccc(N(CCCl)CCCl)cc2)cc(Nc2c3ccccc3nc3ccccc23)c1, the Activity (MX1 [10]) is reported as “Active”, the “Ratio IC50” value (CCRF-CEM [1]) is reported as 0.54 and the IC50 (CCRF-CEM [2]) is reported as 309 nM. The Activity (MX1 [11]) was “Active”, the IC50 (CCRF-CEM [3]) was 108 nM and the Activity (MX1 [12]) was “Active”. For the same compound, the IC50 (HCT-116) was 1710 nM, the IC50 (CCRF-CEM [4]; read-out: IC50) was 200 nM and the “Ratio IC50” value (CCRF-CEM [5]) was 1.5. It also gave an IC50 (MX1 [6]) of 340 nM.
In the case of Cc1cccc2c(Nc3cc(COC(=O)Nc4ccc(N(CCCl)CCCl)cc4)cc(NC(=O)OC(C)(C)C)c3)c3ccccc3nc12, the “Ratio IC50” value (CCRF-CEM [1]) is reported as 1.9, the IC50 (CCRF-CEM [2]) is reported as 3360 nM and the IC50 (CCRF-CEM [3]) is reported as 1420 nM. The IC50 (HCT-116) was 2400 nM, the IC50 (CCRF-CEM [4]; read-out: IC50) was 750 nM and the “Ratio IC50” value (CCRF-CEM [5]) was 4.5. For the same compound, the IC50 (MX1 [6]) was 5930 nM.
For CC(=O)O[C@H]1C(=O)[C@@]2(C)[C@H]([C@H](OC(=O)c3ccccc3)[C@]3(O)C[C@H](OC(=O)[C@H](O)[C@@H](NC(=O)c4ccccc4)c4ccccc4)C(C)=C1C3(C)C)[C@]1(OC(C)=O)CO[C@@H]1C[C@@H]2O [PACLITAXEL], the “Ratio IC50” value (CCRF-CEM [1]) was 980, the IC50 (CCRF-CEM [2]) was 429 nM and the IC50 (CCRF-CEM [3]) was 1270 nM. For the same compound, the IC50 (HCT-116) was 1.1 nM, the IC50 (CCRF-CEM [4]) was 3.1 nM and the “Ratio IC50” value (CCRF-CEM [5]) was 330. For the same compound, the IC50 (MX1 [6]) was 46 nM.
With COc1ccc(NC(=O)Oc2ccc(N(CCCl)CCCl)cc2)cc1Nc1c2ccccc2nc2c(C)cccc12 the “Ratio IC50” value (CCRF-CEM [1]) was 0.54, the IC50 (CCRF-CEM [2]) was 210 nM and the IC50 (CCRF-CEM [3]) was 110 nM. The IC50 (HCT-116) was 841 nM, the IC50 (CCRF-CEM [4]; read-out: IC50) was 205 nM and the “Ratio IC50” value (CCRF-CEM [5]) was 1. For the same compound, the IC50 (MX1 [6]) was 338 nM.
In the case of Cc1cccc2c(Nc3cc(CO)cc(NC(=O)Oc4ccc(N(CCCl)CCCl)cc4)c3)c3ccccc3nc12, the IC50 [7] is reported as 12600 nM, the IC50 [8] is reported as 457 nM and the Activity (MX1 [13]) is reported as “Active”. The IC50 (MCF7) was 9010 nM, the “Ratio IC50” value (CCRF-CEM [1]) was 1.9 and the IC50 (CCRF-CEM [2]) was 97 nM. The IC50 (PC-3) was 5980 nM, the IC50 [9] was 1870 nM and the IC50 (CCRF-CEM [3]) was 127 nM. For the same compound, the IC50 (HCT-116) was 438 nM, the IC50 (CCRF-CEM [4]; read-out: IC50) was 67 nM and the “Ratio IC50” value (CCRF-CEM [5]) was 1.4. For the same compound, the IC50 (MX1 [6]) was 84 nM.
